≈ marks a conversion by molar mass, not a printed value. Read-outs that look alike come from different tables or passages of the source.
Columns and labels:
C. albicans ATCC 90028 = test: Anti-Fungal (Candida) Activity Assay, broth microtiter MIC; format: cell-based; settings: read-out: MIC C. albicans ATCC 90028
In short: (§1)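 In CLSI M27-A3 microtiter plates, yeast from overnight agar culture is inoculated in RPMI 1640–MOPS at a standard-curve density. The MIC is the endpoint scored visually against growth control at 48 h.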

C. krusei ATCC 6258 = test: as above; format: cell-based; settings: Pichia kudriavzevii, read-out: MIC C. krusei ATCC 6258
In short: as §1

[1] = test system: C. parapsilosis ATCC 22019; test: as above; format: cell-based; settings: Lodderomyces parapsilosis, read-out: MIC C. parapsilosis ATCC 22019
In short: as §1

[2] = test system: Phytophthora capsici (Pc); test: Growth inhibition assay of fungal pathogens; format: cell-based; settings: for IC90: Phytophthora capsici, read-out: Concentration at 90% Inhibition Pc
In short: (§2)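 Percent growth inhibition was derived from 48 h OD600 and visual scores relative to 2% DMSO, with blank background subtraction. Fungi were grown from spores in 17% V8 liquid medium, R. solani from 1.5 mm plugs in ¼ PDB, with compound at final 50/10/2 or 2/0.4/0.08 ppm.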

[3] = test system: Collectotrichum graminicola (Cg); test: Growth inhibition assay of fungal pathogens; format: cell-based; settings: 48 h, read-out: Concentration at 90% Inhibition Cg
In short: as §2

[4] = test system: Fusarium moniliforme (Fm); test: Growth inhibition assay of fungal pathogens; format: cell-based; settings: for IC90: Fusarium verticillioides, 48 h, read-out: Concentration at 90% Inhibition Fm
In short: (§3)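 OD600 (blank-subtracted) plus visual scoring at 48 h, vs 2% DMSO ctrl → % inhibition. Final cpd 50/10/2 or 2/0.4/0.08 ppm. Fm/Bc/Dm spores in 17% V8 broth; Rs as 1.5 mm plugs in ¼ PDB.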

[5] = test system: Fusarium virguliforme (Fv); test: Growth inhibition assay of fungal pathogens; format: cell-based; settings: 48 h
In short: as §2

Septoria tritici (St) = test: Growth inhibition assay of fungal pathogens; format: cell-based; settings: for IC90: Zymoseptoria tritici, read-out: Concentration at 90% Inhibition St
In short: as §2

Rhizoctonia solani (Rs) = test: Growth inhibition assay of fungal pathogens; format: cell-based; settings: 48 h, read-out: Concentration at 90% Inhibition Rs
In short: as §3

Botrtyis cinerea (Bc) = test: Growth inhibition assay of fungal pathogens; format: cell-based; settings: 48 h, read-out: Concentration at 90% Inhibition Bc
In short: as §3

Diplodia maydis (Dm) = test: Growth inhibition assay of fungal pathogens; format: cell-based; settings: Stenocarpella maydis, 48 h, read-out: Concentration at 90% Inhibition Dm
In short: as §3

fungal (fACC2) ACC2 = fungal (fACC2) ACC2 (UniProt Q00955); settings: read-out: fACC2 IC50; fungal ACC2, ADP-Glo
human (hACC2) ACC2 = human (hACC2) ACC2 (Homo sapiens, UniProt O00763); test: In vitro Acetyl-CoA Carboxylase (ACC) inhibition assay (ADP-Glo), hACC2; format: biochemical
Method: The detailed procedure is as follows. […] 10 μL ADP glo reagent was added. […] 20 μL kinase detection reagent was added.
“NA” stands for “not assayed.”

[6] = read-out: Concentration at 90% Inhibition Fv, Table 4a, 48 hours
[7] = read-out: Concentration at 90% Inhibition Fv, Table 4b, 48 hours

fungal (fACC2) ACC2, sequence (Q00955 whole entry): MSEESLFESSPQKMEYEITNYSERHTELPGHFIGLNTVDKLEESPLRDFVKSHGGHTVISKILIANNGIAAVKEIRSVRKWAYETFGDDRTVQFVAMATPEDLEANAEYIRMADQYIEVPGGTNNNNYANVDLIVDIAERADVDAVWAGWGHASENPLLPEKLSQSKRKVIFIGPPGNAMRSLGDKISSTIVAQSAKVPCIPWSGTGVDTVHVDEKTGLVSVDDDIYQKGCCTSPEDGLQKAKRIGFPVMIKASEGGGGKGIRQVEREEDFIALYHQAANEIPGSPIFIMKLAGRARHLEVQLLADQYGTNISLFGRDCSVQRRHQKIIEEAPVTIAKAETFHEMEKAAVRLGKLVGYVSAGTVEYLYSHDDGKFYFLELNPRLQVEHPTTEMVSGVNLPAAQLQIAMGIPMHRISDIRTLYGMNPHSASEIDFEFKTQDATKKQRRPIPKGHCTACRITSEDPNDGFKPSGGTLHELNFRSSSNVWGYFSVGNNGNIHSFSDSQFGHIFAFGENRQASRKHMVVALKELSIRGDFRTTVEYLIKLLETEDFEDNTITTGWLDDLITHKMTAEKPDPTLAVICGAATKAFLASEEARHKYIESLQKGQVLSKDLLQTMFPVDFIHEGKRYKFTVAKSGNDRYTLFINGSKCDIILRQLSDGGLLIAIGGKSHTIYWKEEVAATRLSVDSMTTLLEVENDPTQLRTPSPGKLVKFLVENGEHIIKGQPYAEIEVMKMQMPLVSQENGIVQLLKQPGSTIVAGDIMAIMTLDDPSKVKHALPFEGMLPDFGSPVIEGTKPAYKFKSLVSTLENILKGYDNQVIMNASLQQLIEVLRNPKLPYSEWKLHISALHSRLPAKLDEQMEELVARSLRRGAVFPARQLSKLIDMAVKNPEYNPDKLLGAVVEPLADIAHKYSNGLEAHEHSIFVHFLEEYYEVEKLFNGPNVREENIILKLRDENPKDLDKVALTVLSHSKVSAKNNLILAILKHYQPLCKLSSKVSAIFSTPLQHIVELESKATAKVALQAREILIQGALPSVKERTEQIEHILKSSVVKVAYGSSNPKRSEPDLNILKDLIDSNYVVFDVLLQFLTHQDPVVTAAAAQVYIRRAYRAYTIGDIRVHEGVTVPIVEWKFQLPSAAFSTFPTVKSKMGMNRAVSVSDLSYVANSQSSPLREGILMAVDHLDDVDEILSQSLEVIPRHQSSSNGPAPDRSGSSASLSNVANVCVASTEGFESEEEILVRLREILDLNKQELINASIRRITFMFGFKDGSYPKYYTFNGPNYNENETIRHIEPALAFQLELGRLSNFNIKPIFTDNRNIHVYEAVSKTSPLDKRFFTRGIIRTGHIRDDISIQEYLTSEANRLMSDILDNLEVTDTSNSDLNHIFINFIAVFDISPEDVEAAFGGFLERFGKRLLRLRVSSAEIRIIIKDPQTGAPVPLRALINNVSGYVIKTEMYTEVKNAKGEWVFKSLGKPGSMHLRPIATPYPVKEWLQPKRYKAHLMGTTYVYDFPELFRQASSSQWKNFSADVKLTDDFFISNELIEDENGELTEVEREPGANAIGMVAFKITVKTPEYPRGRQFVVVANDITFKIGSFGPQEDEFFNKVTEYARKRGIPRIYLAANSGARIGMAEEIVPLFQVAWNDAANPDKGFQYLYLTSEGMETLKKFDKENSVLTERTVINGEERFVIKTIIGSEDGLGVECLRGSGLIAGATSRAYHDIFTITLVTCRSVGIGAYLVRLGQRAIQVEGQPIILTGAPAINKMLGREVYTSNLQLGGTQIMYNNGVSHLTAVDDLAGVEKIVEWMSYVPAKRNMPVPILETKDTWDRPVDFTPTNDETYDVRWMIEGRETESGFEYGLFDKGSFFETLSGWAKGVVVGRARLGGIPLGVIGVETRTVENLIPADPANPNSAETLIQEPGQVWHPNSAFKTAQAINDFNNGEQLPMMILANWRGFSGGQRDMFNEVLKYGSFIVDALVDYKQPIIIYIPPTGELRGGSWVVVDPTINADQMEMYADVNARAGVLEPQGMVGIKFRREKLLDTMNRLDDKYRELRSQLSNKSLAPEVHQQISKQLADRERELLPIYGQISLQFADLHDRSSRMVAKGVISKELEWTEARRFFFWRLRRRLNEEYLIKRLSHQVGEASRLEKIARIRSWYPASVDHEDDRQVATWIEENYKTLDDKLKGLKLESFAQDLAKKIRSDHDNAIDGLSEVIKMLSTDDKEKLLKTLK
human (hACC2) ACC2, sequence (O00763 whole entry): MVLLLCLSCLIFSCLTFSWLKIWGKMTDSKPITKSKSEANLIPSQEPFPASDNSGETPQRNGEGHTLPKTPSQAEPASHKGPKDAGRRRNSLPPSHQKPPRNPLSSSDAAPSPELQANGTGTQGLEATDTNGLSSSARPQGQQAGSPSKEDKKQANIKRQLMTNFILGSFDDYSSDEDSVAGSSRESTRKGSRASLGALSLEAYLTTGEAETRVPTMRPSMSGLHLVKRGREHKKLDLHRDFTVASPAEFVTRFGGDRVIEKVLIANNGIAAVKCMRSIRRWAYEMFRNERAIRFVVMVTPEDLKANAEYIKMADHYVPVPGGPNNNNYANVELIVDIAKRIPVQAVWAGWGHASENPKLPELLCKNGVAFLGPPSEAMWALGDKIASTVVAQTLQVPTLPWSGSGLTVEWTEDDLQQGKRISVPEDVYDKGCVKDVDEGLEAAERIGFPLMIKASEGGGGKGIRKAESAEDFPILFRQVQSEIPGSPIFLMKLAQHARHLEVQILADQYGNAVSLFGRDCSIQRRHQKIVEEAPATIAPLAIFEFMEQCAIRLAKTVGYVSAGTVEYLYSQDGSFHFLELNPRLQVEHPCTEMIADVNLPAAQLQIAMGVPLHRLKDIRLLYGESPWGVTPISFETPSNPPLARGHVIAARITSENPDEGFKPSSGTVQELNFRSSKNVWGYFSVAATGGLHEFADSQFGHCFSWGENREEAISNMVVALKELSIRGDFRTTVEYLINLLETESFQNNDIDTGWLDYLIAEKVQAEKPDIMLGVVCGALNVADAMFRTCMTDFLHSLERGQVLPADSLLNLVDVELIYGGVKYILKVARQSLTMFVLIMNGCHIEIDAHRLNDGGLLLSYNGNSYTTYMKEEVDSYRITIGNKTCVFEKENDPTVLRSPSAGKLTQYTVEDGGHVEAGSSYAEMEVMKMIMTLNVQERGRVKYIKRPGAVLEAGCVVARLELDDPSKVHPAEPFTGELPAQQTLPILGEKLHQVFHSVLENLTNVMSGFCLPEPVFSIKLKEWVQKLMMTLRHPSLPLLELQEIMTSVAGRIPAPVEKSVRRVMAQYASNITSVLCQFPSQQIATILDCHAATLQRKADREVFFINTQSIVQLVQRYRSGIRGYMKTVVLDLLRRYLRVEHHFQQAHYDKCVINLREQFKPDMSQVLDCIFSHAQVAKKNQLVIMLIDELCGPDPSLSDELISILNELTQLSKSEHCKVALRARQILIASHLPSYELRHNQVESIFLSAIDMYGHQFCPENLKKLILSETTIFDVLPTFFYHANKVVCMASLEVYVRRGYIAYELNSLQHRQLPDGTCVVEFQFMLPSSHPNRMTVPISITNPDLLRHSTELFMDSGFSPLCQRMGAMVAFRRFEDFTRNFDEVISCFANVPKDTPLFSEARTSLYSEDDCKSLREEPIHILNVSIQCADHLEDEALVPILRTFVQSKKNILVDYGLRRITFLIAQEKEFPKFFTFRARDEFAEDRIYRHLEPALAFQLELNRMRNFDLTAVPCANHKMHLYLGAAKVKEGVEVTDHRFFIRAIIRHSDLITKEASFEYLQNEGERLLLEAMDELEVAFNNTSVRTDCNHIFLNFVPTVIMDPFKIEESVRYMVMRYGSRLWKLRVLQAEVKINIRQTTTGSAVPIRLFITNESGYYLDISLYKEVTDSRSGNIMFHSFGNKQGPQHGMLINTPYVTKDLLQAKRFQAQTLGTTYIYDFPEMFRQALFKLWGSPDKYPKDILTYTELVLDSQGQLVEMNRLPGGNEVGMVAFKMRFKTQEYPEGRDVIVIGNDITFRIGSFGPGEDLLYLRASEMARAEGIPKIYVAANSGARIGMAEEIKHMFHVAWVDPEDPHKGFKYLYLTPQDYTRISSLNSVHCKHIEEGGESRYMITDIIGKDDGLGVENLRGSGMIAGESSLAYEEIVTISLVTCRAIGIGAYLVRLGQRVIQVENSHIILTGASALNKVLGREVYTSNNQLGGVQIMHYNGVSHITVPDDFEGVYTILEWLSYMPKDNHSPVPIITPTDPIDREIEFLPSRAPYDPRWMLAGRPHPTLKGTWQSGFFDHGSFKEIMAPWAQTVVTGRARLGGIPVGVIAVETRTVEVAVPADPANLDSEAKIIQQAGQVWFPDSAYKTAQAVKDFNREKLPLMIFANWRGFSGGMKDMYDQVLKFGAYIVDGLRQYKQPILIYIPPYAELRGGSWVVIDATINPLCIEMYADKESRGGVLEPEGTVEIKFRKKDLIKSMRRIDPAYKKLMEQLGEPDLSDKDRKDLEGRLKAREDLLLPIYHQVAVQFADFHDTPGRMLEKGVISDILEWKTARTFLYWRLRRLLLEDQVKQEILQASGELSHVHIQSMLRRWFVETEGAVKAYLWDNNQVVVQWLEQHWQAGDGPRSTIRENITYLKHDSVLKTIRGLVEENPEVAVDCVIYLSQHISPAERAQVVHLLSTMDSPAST

SMILES: COc1ccc(F)cc1[C@H](Cn1c(=O)n(CC(=O)N2CCCC2)c(=O)c2c(C)c(-n3cccn3)sc21)OC(C)C [Compound I-28, (R)-1-(2-(5-fluoro-2-methoxyphenyl)-2-isopropoxyethyl)-5-methyl-3-(2-oxo-2-(pyrrolidin-1-yl)ethyl)-6-(1H-pyrazol-1-yl)thieno[2,3-d]pyrimidine-2,4(1H,3H)-dione]
- MIC (C. albicans ATCC 90028; ATCC90028, 3 replicates, MIC recorded at 48 h): 0.25 to 1 µg/mL (≈ 0.439 to 1.76 µM)
- MIC (C. krusei ATCC 6258; ATCC6258, 3 replicates, MIC recorded at 48 h): 0.25 to 1 µg/mL (≈ 0.439 to 1.76 µM)
- MIC ([1]; ATCC22019, 3 replicates, MIC recorded at 48 h): 0.25 to 1 µg/mL (≈ 0.439 to 1.76 µM)
- IC90 ([2]; Table 4a, 48 hours): > 50 µg/mL
- Concentration at 90% Inhibition Pc ([2]; Table 4b, 48 hours): D (“D” provided a compound concentration of >50 ppm at 90% inhibition of fungal pathogens)
- IC90 ([3]; Table 4a): > 50 µg/mL
- IC90 ([3]; Table 4b): 10 µg/mL (≈ 17.6 µM)
- IC90 ([4]; Table 4a, 48 hours): 0.4 µg/mL (≈ 0.702 µM)
- IC90 ([4]; Table 4b, 48 hours): 0.4 µg/mL (≈ 0.702 µM)
- IC90 ([5]; Table 4a, 48 hours, read-out: Concentration at 90% Inhibition Fv): 2 µg/mL (≈ 3.51 µM)
- IC90 ([5]; Table 4b, 48 hours, read-out: Concentration at 90% Inhibition Fv): 2 µg/mL (≈ 3.51 µM)
- Concentration at 90% Inhibition St (Septoria tritici (St); Table 4b, 48 hours): D (“D” provided a compound concentration of >50 ppm at 90% inhibition of fungal pathogens)
- IC90 (Septoria tritici (St); Table 4a, 48 hours): > 50 µg/mL
- IC90 (Rhizoctonia solani (Rs); Table 4a): 10 µg/mL (≈ 17.6 µM)
- IC90 (Rhizoctonia solani (Rs); Table 4b): 2 µg/mL (≈ 3.51 µM)
- IC90 (Botrtyis cinerea (Bc); Table 4a): 2 µg/mL (≈ 3.51 µM)
- IC90 (Botrtyis cinerea (Bc); Table 4b): 2 µg/mL (≈ 3.51 µM)
- IC90 (Diplodia maydis (Dm); Table 4a): > 50 µg/mL
- IC90 (Diplodia maydis (Dm); Table 4b): > 50 µg/mL
- IC50 (fungal (fACC2) ACC2): 0.6 to 3 nM
- IC50 (human (hACC2) ACC2): 10 to 40 nM

SMILES: COc1ccc(F)cc1[C@H](Cn1c(=O)n(C(C)C(=O)NC(C)C)c(=O)c2c(C)c(-n3cccn3)sc21)OC(C)C (stereo partly drawn) [Compound I-29, 2-(1-((R)-2-(5-fluoro-2-methoxyphenyl)-2-isopropoxy-ethyl)-5-methyl-2,4-dioxo-6-(1H-pyrazol-1-yl)-1,4-dihydrothieno[2,3-d]pyrimidin-3(2H)-yl)-N-isopropylpropanamide]
- MIC (C. albicans ATCC 90028; ATCC90028, 48 h): 1.1 to 2 µg/mL (≈ 1.92 to 3.5 µM)
- MIC (C. krusei ATCC 6258; ATCC6258, 48 h): 2.1 to 4 µg/mL (≈ 3.67 to 7 µM)
- MIC ([1]; ATCC22019, 48 h): > 4.1 µg/mL
- IC90 ([2]; 48 h, Table 4a): > 50 µg/mL
- IC90 ([2]; 48 h, Table 4b): > 50 µg/mL
- IC90 ([3]; Table 4a): 2 µg/mL (≈ 3.5 µM)
- IC90 ([3]; Table 4b): 2 µg/mL (≈ 3.5 µM)
- IC90 [4]: 0.4 µg/mL (≈ 0.7 µM)
- Concentration at 90% Inhibition Fm ([4]; Table 4b, 48 hours): A (“A” provided a compound concentration of 0.4 ppm at 90% inhibition of fungal pathogens)
- IC90 [5, 6]: 2 µg/mL (≈ 3.5 µM)
- IC90 [5, 7]: 2 µg/mL (≈ 3.5 µM)
- IC90 (Septoria tritici (St); 48 h, Table 4a): > 50 µg/mL
- IC90 (Septoria tritici (St); 48 h, Table 4b): > 50 µg/mL
- IC90 (Rhizoctonia solani (Rs); Table 4a): 2 µg/mL (≈ 3.5 µM)
- IC90 (Rhizoctonia solani (Rs); Table 4b): 2 µg/mL (≈ 3.5 µM)
- IC90 (Botrtyis cinerea (Bc); Table 4a): 2 µg/mL (≈ 3.5 µM)
- IC90 (Botrtyis cinerea (Bc); Table 4b): 2 µg/mL (≈ 3.5 µM)
- IC90 (Diplodia maydis (Dm); Table 4a): 2 µg/mL (≈ 3.5 µM)
- IC90 (Diplodia maydis (Dm); Table 4b): 2 µg/mL (≈ 3.5 µM)
- IC50 (fungal (fACC2) ACC2): 0.6 to 3 nM
- IC50 (human (hACC2) ACC2): 10 to 40 nM

SMILES: COc1ccc(F)cc1[C@H](Cn1c(=O)n([C@H](C)C(=O)NC(C)C)c(=O)c2c(C)c(-n3cccn3)sc21)OC(C)C [Compound I-30, (R)-2-(1-((R)-2-(5-fluoro-2-methoxyphenyl)-2-isopropoxyethyl)-5-methyl-2,4-dioxo-6-(1H-pyrazol-1-yl)-1,4-dihydrothieno[2,3-d]pyrimidin-3(2H)-yl)-N-isopropylpropanamide]
- MIC (C. albicans ATCC 90028; ATCC90028, 48 h): 0.25 to 1 µg/mL (≈ 0.437 to 1.75 µM)
- MIC (C. krusei ATCC 6258; ATCC6258, 48 h): 0.25 to 1 µg/mL (≈ 0.437 to 1.75 µM)
- MIC ([1]; ATCC22019, 48 h): 0.25 to 1 µg/mL (≈ 0.437 to 1.75 µM)
- IC90 ([2]; 48 h, Table 4a): > 50 µg/mL
- IC90 ([2]; 48 h, Table 4b): > 50 µg/mL
- IC90 ([3]; Table 4a): 2 µg/mL (≈ 3.5 µM)
- IC90 ([3]; Table 4b): 2 µg/mL (≈ 3.5 µM)
- IC90 [4]: 0.4 µg/mL (≈ 0.7 µM)
- Concentration at 90% Inhibition Fm ([4]; Table 4b, 48 hours): A (“A” provided a compound concentration of 0.4 ppm at 90% inhibition of fungal pathogens)
- IC90 [5, 6]: 0.4 µg/mL (≈ 0.7 µM)
- IC90 [5, 7]: 0.4 µg/mL (≈ 0.7 µM)
- IC90 (Septoria tritici (St); 48 h, Table 4a): > 50 µg/mL
- IC90 (Septoria tritici (St); 48 h, Table 4b): > 50 µg/mL
- IC90 (Rhizoctonia solani (Rs); Table 4a): 2 µg/mL (≈ 3.5 µM)
- IC90 (Rhizoctonia solani (Rs); Table 4b): 2 µg/mL (≈ 3.5 µM)
- IC90 (Botrtyis cinerea (Bc); Table 4a): 2 µg/mL (≈ 3.5 µM)
- IC90 (Botrtyis cinerea (Bc); Table 4b): 2 µg/mL (≈ 3.5 µM)
- IC90 (Diplodia maydis (Dm); Table 4a): 2 µg/mL (≈ 3.5 µM)
- IC90 (Diplodia maydis (Dm); Table 4b): 2 µg/mL (≈ 3.5 µM)
- IC50 (fungal (fACC2) ACC2): 0.6 to 3 nM
- IC50 (human (hACC2) ACC2): 3 to 10 nM
